Laboratory results taken from patent US9788549B2, “Broad spectrum disinfectant” (DI[…] LLC, priority 2014, dated 2017).

Key:
[1] = solution has the proper amount of sodium polyphosphate
[2] = atmospheric pressure, 20° C.; cited from earlier work

For `[O][Cl+][O-]` [Chlorine dioxide], the “stability of ClO2 in solution” value [1] is listed as “remain stable for years” and the solubility in water [2] is listed as “approximately 70 g/l”.
